Common to all, as to type: physicochemical
Series [1] is described as follows: Solubility in water at room temperature (salts of the invention).
Series [2] in a line: Solubility and pH value of the aqueous solution on addition of excess acid. An excerpt:
Addition of excess amounts of acid increases the solubility of the salts. For example a 1-fold, preferably a 0.5-fold, in particular a 0.25-fold excess of acid may be used.
For example, the addition of acids yields the following solubility and following pH value of the aqueous solution: […]

A short description of series [3]: Solubility in water at 20° C. (azelastine and previously known salts).
The mark [4] stands for this setting: aqueous solution, excess acid 0 mol.
[5] abbreviates: aqueous solution, excess acid 0.1 mol.
[6] abbreviates: aqueous solution, excess acid 0.25 mol.

Structures are written as SMILES. Counter-ions that a name gives are not always drawn. Like-named read-outs stand apart in the source and are kept apart here.

With `CN1CCCC(n2nc(Cc3ccc(Cl)cc3)c3ccccc3c2=O)CC1` (stereo not drawn) [gluconate, azelastine gluconate], the Solubility in water result in series [1] was “up to 55%”. The pH value in series [2] (aqueous solution, excess acid 0.5 mol) was 4.5. For the same compound, the Solubility in series [2] (aqueous solution, excess acid 0.5 mol, read-out: Solubility) was 100 mg/mL.

Turning to `CN1CCCC(n2nc(Cc3ccc(Cl)cc3)c3ccccc3c2=O)CC1` (stereo not drawn) [toluene sulphonate], the Solubility in water entry in series [3] is on record as “under 1%”.

On to `CN1CCCC(n2nc(Cc3ccc(Cl)cc3)c3ccccc3c2=O)CC1` (stereo not drawn) [phosphate], for which the Solubility in water result in series [3] is “ca. 1%”.

Regarding `CN1CCCC(n2nc(Cc3ccc(Cl)cc3)c3ccccc3c2=O)CC1` (stereo not drawn) [fumarate], the Solubility in water entry in series [3] is on record as “under 1%”.

For `CN1CCCC(n2nc(Cc3ccc(Cl)cc3)c3ccccc3c2=O)CC1` (stereo not drawn) [lactate, azelastine lactate], the Solubility in water result in series [1] is reported as “more than 10%”. The pH value was 5.15 in series [2] (setting [4]), 4.6 in series [2] (setting [5]) and 4.1 in series [2] (setting [6]). In addition, the Solubility was determined as 3% in series [2] (excess acid 0 mol), 5% in series [2] (excess acid 0.1 mol) and 10% in series [2] (excess acid 0.25 mol).

On to `CN1CCCC(n2nc(Cc3ccc(Cl)cc3)c3ccccc3c2=O)CC1` (stereo not drawn) [maleate], for which the Solubility in water entry in series [3] is on record as “ca. 1%”.

In the case of `CN1CCCC(n2nc(Cc3ccc(Cl)cc3)c3ccccc3c2=O)CC1` (stereo not drawn) [hydrochloride], the Solubility in water in series [3] is given as 1%.

Turning to `CN1CCCC(n2nc(Cc3ccc(Cl)cc3)c3ccccc3c2=O)CC1` (stereo not drawn) [acetate, azelastine acetate], the Solubility in water result in series [1] is “more than 10%”. The pH value in series [2] (setting [4]) is on record as 6.35; in series [2] (setting [5]), 5.52; in series [2] (setting [6]) it was 5.1. Further, the Solubility in series [2] (aqueous solution, excess acid 0.1 mol, read-out: Solubility) was found to be 30 mg/mL; in series [2] (aqueous solution, excess acid 0.25 mol, read-out: Solubility), 100 mg/mL; in series [2] (excess acid 0 mol), 2%.

As to `CN1CCCC(n2nc(Cc3ccc(Cl)cc3)c3ccccc3c2=O)CC1` (stereo not drawn) [Azelastine, 4-(4-chlorobenzyl)-2-(perhydro-1methylazepine-4-yl)-1-(2H) phthalazinone], the Solubility in water in series [3] is 0.005%.

As to `CN1CCCC(n2nc(Cc3ccc(Cl)cc3)c3ccccc3c2=O)CC1` (stereo not drawn) [succinate], the Solubility in water entry in series [3] is on record as “ca. 1%”.

As for `CN1CCCC(n2nc(Cc3ccc(Cl)cc3)c3ccccc3c2=O)CC1` (stereo not drawn) [embonate], the Solubility in water in series [3] stood at 0.0015%.

Regarding `CN1CCCC(n2nc(Cc3ccc(Cl)cc3)c3ccccc3c2=O)CC1` (stereo not drawn) [malate, azelastine malate], the Solubility in water in series [1] stood at 3%. This compound showed a pH value in series [2] (setting [4]) of 3.85. In series [2] (excess acid 0 mol), this compound returned a Solubility of 5%.

With `CN1CCCC(n2nc(Cc3ccc(Cl)cc3)c3ccccc3c2=O)CC1` (stereo not drawn) [methane sulphonate], the Solubility in water result in series [3] is “ca. 1%”.

`CN1CCCC(n2nc(Cc3ccc(Cl)cc3)c3ccccc3c2=O)CC1` (stereo not drawn) [benzene sulphonate]: in series [3], the Solubility in water result was “under 1%”.
